# Test results as given in US20060030556A1, “Neurokinin-1 receptor antagonists for the treatment of conditions responsive to testosterone elevation, including testosterone deficiency” (SOLVAY PHARMACEUTICALS B.V., priority 2004, published 2006).
# Key:
# [1] = tested on: NK1 receptors in the tree shrew brain; assay: Nicotine-induced emesis pilot study to establish the dose that blocks NK1 receptors in tree shrew brain; format: in vivo, tree shrews (Tupaia belangen); conditions: 30 min before s.c. (-)-nicotine 4 mg/kg, episodes counted over following 30 min, n=4 crossover
# Method: (§1) The experiments were carried out using tree shrews (Tupaia belangen). Experimentally naive adult male tree shrews were obtained from the breeding colony at the German Primate Center (Göttingen, Germany). Animals were housed individually in air-conditioned facilities on a 12 hr/12 hr light/dark cycle with artificial illumination (lights on from 8:00 A.M. to 8:00 P.M.) and with free access to food and water (Fuchs E. “Tree shrews”, In: Poole T, (ed) UFAW handbook on the care and management of laboratory animals Oxford: Blackwell, 235-245, 1999). All treatments were performed during the day (activity period, lights on). Animal experiments were conducted in accordance with the European Communities Council Directive of Nov. 24, 1986 […] and were approved by the Government of Lower Saxony, Germany.
# Animals received the NK1 receptor antagonist Compound 1 orally. A pilot study to establish the dose of Compound 1 that blocks NK1 receptors in the tree shrew brain was conducted. The methodology used is based on the ability of NK1 receptor antagonists to block nicotine-induced vomiting in musk shrews (Tattersall et al., Neuropharmacology, 34, 1697-1699, 1995). Adult tree shrews (n=4) received either vehicle or Compound 1 in different dosage orally followed 30 minutes later by subcutaneous administration of (−)-nicotine (4 mg/kg; Sigma), and the number of emetic episodes occurring during the following 30 min was recorded. Each animal received each treatment in a crossover design, with 10 days washout period between studies. Emetic episodes were abolished by treatment with 20 mg/kg per day Compound 1, whereas lower doses, i.e. 5 or 10 mg/kg per day and vehicle were ineffective.
# [2] = Serum testosterone in chronic psychosocial stress with concomitant Compound 1 treatment (enzyme-immunoassay); format: in vivo, tree shrews (Tupaia belangen)
# Method: as §1
# The experimental design was as follows: Animals were divided into three experimental groups: ‘Control’, ‘Stress’ and ‘Stress+Compound 1’, each consisting of six tree shrews. The experiment consisted of three different phases and lasted for six weeks (42 days). The first experimental phase went on for 7 days, during which all animals remained undisturbed and body weight was recorded daily. The second phase of the experiment was a 7-day period, during which the animals of the Stress' and the ‘Stress+Compound 1’ group were submitted to daily psychosocial conflict. For the induction of psychosocial conflict one naive male was introduced into the cage of a socially experienced male. After establishment of a clear dominant/subordinate relationship, the two animals were separated by a wire mesh barrier. […]
# For determination of testosterone, 100 μl serum was two times extracted with 1 ml of diethylether by vortexing for 10 min. […] 50 μl aliquots of reconstituted extracts were then measured for concentrations of testosterone by enzyme-immunoassay as described by Kraus et al. (Physiol. Behav. 66: 855-861, 1999). […]
# Serum testosterone levels were measured from blood samples collected before perfusing the animals. […]
# [3] = 20 mg/kg/day oral for 28 days, p<0.05
smiles,measurement,setting,value
O=C(c1cccc(C(F)(F)F)c1)N1C[C@H]2CC[C@H](N3CCOCC3)CN2C[C@H]1Cc1c[nH]c2ccccc12 [Compound 1],emetic episodes after (-)-nicotine,[1]; 5 mg/kg per day oral,ineffective
same,emetic episodes after (-)-nicotine,[1]; 10 mg/kg per day oral,ineffective
same,emetic episodes after (-)-nicotine,[1]; 20 mg/kg per day oral,abolished
same,serum testosterone concentrations compared to 'Control' animals,[2]; [3],two fold increase
same,testosterone levels compared to the 'Stress' group,[2]; [3],six times higher
same,Serum testosterone concentration,"[2]; Stress + Compound 1 group, 20 mg/kg/day oral for 28 days during psychosocial stress, n = 6, p<0.05 versus Control and versus Stress",6.45 ± 2.00 *# (n = 6) ng/ml
